The source of these data is patent US4487761A, “Dopamine β-hydroxylase inhibitors” (Merck & Co., Inc., priority 1982, dated 1984).

The test deals with T1, Dopamine β-hydroxylase (Bos taurus, UniProt P15101).
T1 construct: Dopamine β-hydroxylase was obtained from beef adrenal glands; from tissue; host or cells: beef adrenal glands
T1 sequence (P15101 1-610): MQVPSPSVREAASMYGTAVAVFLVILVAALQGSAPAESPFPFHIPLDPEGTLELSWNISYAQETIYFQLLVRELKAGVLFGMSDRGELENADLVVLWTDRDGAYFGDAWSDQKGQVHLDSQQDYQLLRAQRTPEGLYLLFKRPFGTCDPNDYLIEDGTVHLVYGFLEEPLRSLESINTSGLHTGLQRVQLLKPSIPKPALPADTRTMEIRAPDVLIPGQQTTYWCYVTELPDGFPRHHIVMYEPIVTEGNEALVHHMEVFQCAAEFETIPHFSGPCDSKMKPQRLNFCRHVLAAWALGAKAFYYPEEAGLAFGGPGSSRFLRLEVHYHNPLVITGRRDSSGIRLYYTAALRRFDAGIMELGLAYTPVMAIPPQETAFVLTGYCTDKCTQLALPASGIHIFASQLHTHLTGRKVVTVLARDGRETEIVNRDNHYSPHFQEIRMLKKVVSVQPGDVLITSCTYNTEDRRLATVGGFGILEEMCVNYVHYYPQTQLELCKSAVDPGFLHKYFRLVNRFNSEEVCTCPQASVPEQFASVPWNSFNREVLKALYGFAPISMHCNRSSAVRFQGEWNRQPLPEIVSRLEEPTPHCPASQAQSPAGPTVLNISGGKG
Put plainly: Dopamine β-Hydroxylase Inhibition Assay. The note with it: 5 mM tyramine, pH 5.5, 37° C., 10 minutes; enzyme from beef adrenal glands; read-out: I50 (inhibition median) (converted). The format is biochemical. The protocol: Dopamine β-hydroxylase was obtained from beef adrenal glands. Minced adrenals were homogenized with 0.025M potassium phosphate buffer (pH--6.4) and centrifuged. The supernatant was adjusted to a final concentration of 1% Triton X-100 (Calbiochem. Inc.) by the addition of one-fourth volume of a 5% Triton X-100 solution and stirred at room temperature for 30 minutes. The Triton X-100 treated supernatant was centrifuged, and fractionated with a 66% aqueous ammonium sulfate solution. The resulting precipitate was homogenized in 0.025M potassium phosphate buffer (pH=6.4) and dialyzed. The dialysate was applied to a DE-52 Cellulose Column (Whatman Co.), pre-equilibrated with 0.005M potassium phosphate buffer (pH=6.4), and preloaded with about 2 cm of acid-washed activated carbon, located directly above the cellulose resin. […]
The assay for the dopamine β-hydroxylase inhibition was carried out in a 1 ml incubation mixture containing 5 mM tyramine (freashly prepared), 1.5 mM ascorbic acid (prepared monthly), 0.4 mM sodium fumarate, 0.045 mM pargyline, catalase ([…] per ml, 500 units) and 0.065M sodium acetate buffer, pH 5.5. […] The optical absorbance of the organic phase was measured at 280 nm. […]

On to `Cc1nc(O)c(O)cc1O` [Compound II], for which the IC50 is ~262 nM. Consider `Cc1nc(O)c(O)c(CO)c1O` [Compound I], for which the IC50 was ~158 nM.
